Reference: paper PMC9570109, “Improved Trimethylangelicin Analogs for Cystic Fibrosis: Design, Synthesis and Preliminary Screening” (International Journal of Molecular Sciences, 2022)

Experiments:
Format in all cases: cell-based
[1] = system: Salmonella typhimurium TA98; assay: Ames mutagenicity assay, plate incorporation, TA98
Protocol: (§1) The mutagenicity assay was performed for the test compounds following the plate incorporation method with the histidine-requiring Salmonella typhimurium mutant TA97A, TA98, TA100, and TA1535 strains purchased by Molecular Toxicology Inc. (Boone, NC, USA; moltox.com). All strains (100 µL per plate of fresh overnight cultures) were checked with and without the addition of 0.5 mL of a 5% S9 exogenous metabolic activator (S9 mix). The lyophilized post-mitochondrial supernatant S9 mix (Aroclor 1254-induced, Sprague–Dawley male rat liver in 0.154 M KCl solution), commonly used for the activation of pro-mutagens in mutagenic metabolites (Molecular Toxicology, Inc., Boone, NC, USA), was stored at −80 °C before use. The concentration tested for all the samples were 5, 10, 20, 50, and 100 µL/plate from a stock solution of 500 nM. A fully grown culture of the appropriate tester strain (0.1 mL) was added to 2 mL molten top agar (0.6% agar, 0.6% NaCl, 0.5 mM L-histidine/biotin solution) at 46 °C, together with 0.1 mL of each sample solution at different concentrations, and 0.5 mL S9 mix for assays with metabolic activation. The ingredients were thoroughly mixed and poured onto minimal glucose agar plates (1.5% agar in 2% Vogel–Bonner medium E with 5% glucose solution). DMSO was used as negative a control (100 µL/plate). Positive controls were prepared as follows: 2-aminoanthracene (2 µg/plate) and 2-nitrofluorene (2 µg/plate) for TA 97A, TA98 and TA1535 with and without metabolic activator (S9 mix), respectively; 2-aminoanthracene (2 µg/plate) and sodium azide (2 µg/plate) for TA100, with and without metabolic activator (S9 mix), respectively. The plates were incubated at 37 °C for 72 h and then his+ revertants were checked and counted using a Colony Counter 560 Suntex (Antibioticos, Italy). A sample was considered mutagenic when the observed number of colonies was at least twofold over the spontaneous level of revertants. All determinations were made in triplicate. Statistical analysis: relative standard deviations were calculated using the statistical software STATISTICA 6.0 (StatSoft, Italia srl, Vigonza, Italy). […]
(§2) Salmonella typhimurium TA97A Salmonella typhimurium TA98 Salmonella typhimurium TA100 Salmonella typhimurium 1535 […]
(§3) average SD t/c average SD t/c average SD t/c average SD t/c average SD t/c average SD t/c average SD t/c average SD t/c […]
(§4) *Significant values according to Ames computation (Maron & Ames, 1983); DMSO, C+: negative and positive controls respectively; SD: Standard Deviation; t/c: number of revertant colonies in treated plates/number of revertant colonies in […]

[2] = system: Salmonella typhimurium TA100; assay: Ames mutagenicity assay, plate incorporation, TA100
Protocol: as §1, §2, §3, §4

[3] = system: Salmonella typhimurium 1535; assay: Ames mutagenicity assay, plate incorporation, TA1535
Protocol: as §1, §2, §3, §4

[4] = TA98, +S9, 5 µL/plate of 500 nM stock
[5] = TA98, +S9, 10 µL/plate of 500 nM stock
[6] = TA98, +S9, 20 µL/plate of 500 nM stock
[7] = TA98, +S9, 50 µL/plate of 500 nM stock
[8] = TA98, +S9, 100 µL/plate of 500 nM stock
[9] = TA98, -S9, 5 µL/plate of 500 nM stock
[10] = TA98, -S9, 10 µL/plate of 500 nM stock
[11] = TA98, -S9, 20 µL/plate of 500 nM stock
[12] = TA98, -S9, 50 µL/plate of 500 nM stock
[13] = TA98, -S9, 100 µL/plate of 500 nM stock
[14] = TA100, +S9, 5 µL/plate of 500 nM stock
[15] = TA100, +S9, 10 µL/plate of 500 nM stock
[16] = TA100, +S9, 20 µL/plate of 500 nM stock
[17] = TA100, +S9, 50 µL/plate of 500 nM stock
[18] = TA100, +S9, 100 µL/plate of 500 nM stock
[19] = TA100, -S9, 5 µL/plate of 500 nM stock
[20] = TA100, -S9, 10 µL/plate of 500 nM stock
[21] = TA100, -S9, 20 µL/plate of 500 nM stock
[22] = TA100, -S9, 50 µL/plate of 500 nM stock
[23] = TA100, -S9, 100 µL/plate of 500 nM stock
[24] = 1535, +S9, 5 µL/plate of 500 nM stock
[25] = 1535, +S9, 10 µL/plate of 500 nM stock
[26] = 1535, +S9, 20 µL/plate of 500 nM stock
[27] = 1535, +S9, 50 µL/plate of 500 nM stock
[28] = 1535, +S9, 100 µL/plate of 500 nM stock
[29] = 1535, -S9, 5 µL/plate of 500 nM stock
[30] = 1535, -S9, 10 µL/plate of 500 nM stock
[31] = 1535, -S9, 20 µL/plate of 500 nM stock
[32] = 1535, -S9, 50 µL/plate of 500 nM stock
[33] = 1535, -S9, 100 µL/plate of 500 nM stock

Cc1cc(=O)oc2c1cc(-c1ccc(N)cc1)c1occ(C)c12 [pANDMA]
revertant colonies, average [1, 4]: 50.0
t/c (revertant colonies treated/untreated plates) [1, 4]: 1.1
revertant colonies, average [1, 5]: 48.0
t/c (revertant colonies treated/untreated plates) [1, 5]: 1.0
revertant colonies, average [1, 6]: 49.5
t/c (revertant colonies treated/untreated plates) [1, 6]: 1.1
revertant colonies, average [1, 7]: 51.0
t/c (revertant colonies treated/untreated plates) [1, 7]: 1.1
revertant colonies, average [1, 8]: 45.5
t/c (revertant colonies treated/untreated plates) [1, 8]: 1.0
revertant colonies, average [1, 9]: 40.5
t/c (revertant colonies treated/untreated plates) [1, 9]: 1.0
revertant colonies, average [1, 10]: 40.5
t/c (revertant colonies treated/untreated plates) [1, 10]: 1.0
revertant colonies, average [1, 11]: 43.5
t/c (revertant colonies treated/untreated plates) [1, 11]: 1.1
revertant colonies, average [1, 12]: 41.0
t/c (revertant colonies treated/untreated plates) [1, 12]: 1.1
revertant colonies, average [1, 13]: 39.0
t/c (revertant colonies treated/untreated plates) [1, 13]: 1.0
revertant colonies, average [2, 14]: 175.0
t/c (revertant colonies treated/untreated plates) [2, 14]: 1.0
revertant colonies, average [2, 15]: 181.5
t/c (revertant colonies treated/untreated plates) [2, 15]: 1.1
revertant colonies, average [2, 16]: 224.0
t/c (revertant colonies treated/untreated plates) [2, 16]: 1.3
revertant colonies, average [2, 17]: 232.0
t/c (revertant colonies treated/untreated plates) [2, 17]: 1.4
revertant colonies, average [2, 18]: 235.5
t/c (revertant colonies treated/untreated plates) [2, 18]: 1.4
revertant colonies, average [2, 19]: 192.0
t/c (revertant colonies treated/untreated plates) [2, 19]: 1.0
revertant colonies, average [2, 20]: 189.0
t/c (revertant colonies treated/untreated plates) [2, 20]: 1.0
revertant colonies, average [2, 21]: 204.5
t/c (revertant colonies treated/untreated plates) [2, 21]: 1.0
revertant colonies, average [2, 22]: 189.0
t/c (revertant colonies treated/untreated plates) [2, 22]: 1.0
revertant colonies, average [2, 23]: 165.5
t/c (revertant colonies treated/untreated plates) [2, 23]: 0.8
revertant colonies, average [3, 24]: 14.5
t/c (revertant colonies treated/untreated plates) [3, 24]: 1.4
revertant colonies, average [3, 25]: 17.0
t/c (revertant colonies treated/untreated plates) [3, 25]: 1.6
revertant colonies, average [3, 26]: 12.0
t/c (revertant colonies treated/untreated plates) [3, 26]: 1.1
revertant colonies, average [3, 27]: 13.0
t/c (revertant colonies treated/untreated plates) [3, 27]: 1.2
revertant colonies, average [3, 28]: 14.0
t/c (revertant colonies treated/untreated plates) [3, 28]: 1.3
revertant colonies, average [3, 29]: 17.5
t/c (revertant colonies treated/untreated plates) [3, 29]: 1.6
revertant colonies, average [3, 30]: 13.0
t/c (revertant colonies treated/untreated plates) [3, 30]: 1.2
revertant colonies, average [3, 31]: 5.5
t/c (revertant colonies treated/untreated plates) [3, 31]: 0.5
revertant colonies, average [3, 32]: 9.5
t/c (revertant colonies treated/untreated plates) [3, 32]: 0.9
revertant colonies, average [3, 33]: 10.0
t/c (revertant colonies treated/untreated plates) [3, 33]: 0.9
